The OligoGym collection
Values joined by “and” are separate entries in the source; they are usually repeats but may differ in a detail not shown here. Identical values can stand only once. After the bases stand the sugars from the 5' end (letter, count) and the backbone: PS all phosphorothioate, else s phosphorothioate and o phosphodiester by linkage. Methylation of C is not given here. e = 2'-O-(2-methoxyethyl) (MOE); k = constrained ethyl (cEt); d = 2'-deoxy (DNA)

Biological target: APOL1
Conditions: ASO

Row | Sequence | target mRNA inhibition (A431, 0.0156 µM) | target mRNA inhibition (A431, 0.0625 µM) | target mRNA inhibition (A431, 0.25 µM) | target mRNA inhibition (A431, 1 µM) | target mRNA inhibition (A431, 2 µM) | target mRNA inhibition (A431, 0.04 µM)
1 | GAACGCAATGCTGACT (sugars k2 d4 e3 k2 d5, PS) | 20% | 42% | 77% | 92% | 95% | 
2 | GAACGCAATGCTGACT (sugars k3 d10 k3, PS) |  | 14% | 50% | 76% |  | 
3 | GAAGATTGGCTCTGGC (sugars k3 d4 k3 e1 d5, PS) |  |  |  |  | 70% | 
4 | GAAGATTGGCTCTGGC (sugars kddddkekekeddddd, PS) |  |  |  |  | 21% | 
5 | GAAGATTGGCTCTGGC (sugars kekddddeekkddddd, PS) |  |  |  |  | 87% | 
6 | GAAGATTGGCTCTGGC (sugars kkddddkekekkdddd, PS) |  |  |  |  | 10% | 
7 | GAAGCTTTAAACTCAG (sugars kkddddkekekddddd, PS) |  |  |  |  | 84% | 
8 | GAATTATGGAATTGCA (sugars k4 d9 k3, PS) |  | 59% | 82% | 92% |  | 
9 | GAATTATGGAATTGCA (sugars kkddddkekekddddd, PS) |  |  |  |  | 51% | 
10 | GAGAACATTGAAACAC (sugars k3 d10 k3, PS) |  | 19% | 65% | 86% |  | 
11 | GAGTATTGTTTTTGTG (sugars k3 d4 k3 e1 d5, PS) |  |  |  |  | 88% | 
12 | GAGTATTGTTTTTGTG (sugars kekddddeekkddddd, PS) |  |  |  |  | 90% | 
13 | GAGTATTGTTTTTGTG (sugars kkddddekekeddddd, PS) | 40% | 78% | 92% | 97% | 98% | 47% and 50%
14 | GAGTATTGTTTTTGTG (sugars kkkddddkekeddddd, PS) |  |  |  |  | 81% | 
15 | GAGTCATTAGTGCTAT (sugars k4 d9 k3, PS) |  | 53% | 77% | 85% |  | 
16 | GAGTCATTTGCTAGGT (sugars k4 d9 k3, PS) |  | 78% | 89% | 92% |  | 
17 | GATTCTGTGTGCTCAC (sugars k4 d9 k3, PS) |  | 46% | 72% | 87% |  | 
18 | GCAAGGCTAAGTTCCG (sugars k4 d9 k3, PS) |  | 79% | 92% | 97% |  | 
19 | GCAATGCTGACTTGGC (sugars kkddddkekekkdddd, PS) | 5% | 12% | 44% | 80% | 91% | 
20 | GCAGTTTCATATTCAC (sugars k4 d9 k3, PS) |  | 75% | 92% | 98% |  | 
21 | GCAGTTTTGTAAGTGC (sugars k3 d4 k3 e1 d5, PS) |  |  |  |  | 76% | 
22 | GCTAATTTTCTGACTG (sugars k2 d4 e3 k2 d5, PS) | 35% | 62% | 81% | 92% | 94% | 
23 | GCTAATTTTCTGACTG (sugars k3 d4 k3 e1 d5, PS) | 2% | 46% | 76% | 87% | 92% | 
24 | GCTAATTTTCTGACTG (sugars kdddddkekekddddd, PS) |  |  |  |  | 98% | 

Row | Sequence | target mRNA inhibition (A431, 0.0156 µM) | target mRNA inhibition (A431, 0.0625 µM) | target mRNA inhibition (A431, 0.25 µM) | target mRNA inhibition (A431, 1 µM) | target mRNA inhibition (A431, 2 µM) | target mRNA inhibition (A431, 0.04 µM)
25 | GCTATGGAAATGCCAA (sugars k4 d9 k3, PS) |  | 28% | 61% | 81% |  | 
26 | GCTGGGTCTGTAGTGG (sugars k4 d9 k3, PS) |  | 49% | 70% | 82% |  | 
27 | GCTTTAAACTCAGGTG (sugars kkddddekekeddddd, PS) | 14% | 41% | 62% | 86% | 92% | 
28 | GCTTTAAACTCAGGTG (sugars kkkddddkekeddddd, PS) |  |  |  |  | 82% | 
29 | GGAAATGAACGCAATG (sugars k4 d9 k3, PS) |  | 37% | 71% | 87% |  | 
30 | GGAATTATGGAATTGC (sugars kkkddddkdkdkdddd, PS) |  |  |  |  | 76% | 
31 | GGCAGTTTTGTAAGTG (sugars k2 d4 e3 k2 d5, PS) |  |  |  |  | 80% | 
32 | GGGAATTATGGAATTG (sugars k2 d4 e3 k2 d5, PS) |  |  |  |  | 86% | 
33 | GGGAATTATGGAATTG (sugars k4 d9 k3, PS) |  | 48% and 59% | 70% and 67% | 80% and 77% |  | 
34 | GGGTTATGAAATTATT (sugars kkddddekekeddddd, PS) |  |  |  |  | 88% | 
35 | GGTTCAAAAGCAGCAT (sugars k3 d4 k3 e1 d5, PS) |  |  |  |  | 74% | 
36 | GGTTCAAAAGCAGCAT (sugars kkkddddkekeddddd, PS) |  |  |  |  | 70% | 
37 | GGTTGTCCAGAGCTTT (sugars k4 d9 k3, PS) |  | 100% | 84% | 91% |  | 
38 | GTAAGTATTGCCAGCT (sugars kkkddddkekekdddd, PS) |  |  |  |  | 73% | 
39 | GTAGAATGAGCAGGTC (sugars k4 d9 k3, PS) |  | 84% | 97% | 99% |  | 
40 | GTATTGTTTTTGTGGG (sugars kkddddkekekkdddd, PS) |  |  |  |  | 39% | 
41 | GTATTTCTTGATGTGG (sugars k3 d4 k3 e1 d5, PS) |  |  |  |  | 98% | 
42 | GTATTTCTTGATGTGG (sugars k3 d5 k3 d5, PS) |  |  | 95% and 98% and 99% | 97% and 99% and 100% | 99% and 100% | 
43 | GTATTTCTTGATGTGG (sugars kekddddeekkddddd, PS) |  |  |  | 99% | 99% | 70%
44 | GTATTTCTTGATGTGG (sugars kkdddddkekeddddd, PS) | 59% | 89% | 97% | 98% and 99% | 98% | 64%
45 | GTCTAAAGTAAACTGC (sugars k4 d9 k3, PS) |  |  | 65% and 83% | 81% and 89% |  | 
46 | GTGAGTATTGTTTTTG (sugars kkddddekekeddddd, PS) |  |  |  |  | 93% | 
47 | GTGTATTTCTTGATGT (sugars k2 d4 e3 k2 d5, PS) | 18% | 51% | 79% | 91% | 96% | 
48 | GTTATATTTGATCCTC (sugars kdddddkekekddddd, PS) | 26% | 56% | 78% | 92% | 95% | 

Row | Sequence | target mRNA inhibition (A431, 0.0156 µM) | target mRNA inhibition (A431, 0.0625 µM) | target mRNA inhibition (A431, 0.25 µM) | target mRNA inhibition (A431, 1 µM) | target mRNA inhibition (A431, 2 µM) | target mRNA inhibition (A431, 0.04 µM)
49 | GTTATATTTGATCCTC (sugars kkddddkekekddddd, PS) |  |  |  |  | 80% | 
50 | GTTATGAAATTATTGG (sugars kdddddkekekddddd, PS) |  |  |  |  | 73% | 
51 | GTTATGAAATTATTGG (sugars kkddddekekeddddd, PS) |  |  |  |  | 68% | 
52 | GTTATGAAATTATTGG (sugars kkddddkekekddddd, PS) |  |  |  |  | 83% | 
53 | GTTCAAAAGCAGCATT (sugars k3 d4 k3 e1 d5, PS) |  |  |  |  | 80% | 
54 | GTTCAAAAGCAGCATT (sugars kkkddddkekekdddd, PS) |  |  |  |  | 24% | 
55 | GTTCTAACTCTTGGGC (sugars kdddddkekekddddd, PS) |  |  |  |  | 28% | 
56 | GTTCTAACTCTTGGGC (sugars kddddkekekeddddd, PS) |  |  |  |  | 77% | 
57 | GTTTACTTACCGGGTA (sugars k4 d9 k3, PS) |  | 47% and 38% |  | 84% and 63% |  | 
58 | GTTTTATGGAGTCATT (sugars k4 d9 k3, PS) |  | 51% and 34% | 78% and 70% | 92% and 84% |  | 
59 | GTTTTGTAAGTGCAAC (sugars k2 d4 e3 k2 d5, PS) |  |  |  |  | 83% | 
60 | GTTTTGTAAGTGCAAC (sugars kkddddekekeddddd, PS) |  |  |  |  | 86% | 
61 | TAAGTATTGCCAGCTA (sugars k2 d4 e3 k2 d5, PS) |  |  |  |  | 79% | 
62 | TAAGTATTGCCAGCTA (sugars kkkddddkekeddddd, PS) |  |  |  |  | 78% | 
63 | TAAGTGCTTTGATTCG (sugars k4 d9 k3, PS) |  | 64% and 82% | 87% and 92% | 94% and 96% |  | 
64 | TAATTCTATTAGAGGG (sugars kkddddekekeddddd, PS) |  |  |  |  | 46% | 
65 | TACTTCTGTTAGATAC (sugars k4 d9 k3, PS) |  | 47% | 76% | 92% |  | 
66 | TATATTTGATCCTCAA (sugars kddddkekekeddddd, PS) |  |  |  |  | 75% | 
67 | TATTTCTTGATGTGGT (sugars k3 d4 k3 e1 d5, PS) | 45% | 78% | 95% | 98% | 99% | 
68 | TATTTCTTGATGTGGT (sugars kkddddekekeddddd, PS) | 36% | 66% | 90% | 98% and 96% | 99% | 53% and 50%
69 | TATTTCTTGATGTGGT (sugars kkddddkdkdkddddd, PS) | 40% | 71% | 91% | 96% | 97% | 
70 | TATTTCTTGATGTGGT (sugars kkddddkekekddddd, PS) | 44% | 77% | 92% | 96% | 97% | 
71 | TCAACACATCATTGGG (sugars k4 d9 k3, PS) |  | 38% | 73% | 90% |  | 
72 | TCAGATGGGTACTTCT (sugars k2 d4 e4 k2 d4, PS) |  |  |  |  | 78% | 
